Reference: patent US20020132812A1, “Oral hypoglycaemic agents” (priority 2000, published 2002)

How the values were obtained:
mouse pancreatic β-cells = assay: Ca2+-evoked exocytosis (cell capacitance, whole-cell patch clamp) in single mouse pancreatic β-cells; assay type: cell-based; conditions: 100 μM compound in pipette solution, free Ca2+ 0.2 μM
Text: Pancreatic islets were isolated from fed NMRI mice (15-23 g). Briefly, the mice were stunned by a blow against the head and killed by cervical dislocation. The pancreas was quickly removed and pancreatic islets were isolated by collagenase (Sigma) digestion (Gromada et al. J. Physiol., Vol. 518 (3) pp. 745-759, 1999). For insulin release experiments, the islets were kept in RPMI-1640 tissue culture medium overnight before use. […]
Patch pipettes were drawn from borosilicate glass capillaries. […] The currents were recorded using an Axopatch 200B patch clamp amplifier (Axon Instruments, Foster City, Calif., USA), digitized and stored in a computer using the Digidata AD-converter and the software pClamp (version 6.0; Axon Instruments). Alternatively, KATP-currents were recorded using an EPC-9 patch clamp amplifier and the Pulse software (v. 8.01; HEKA Elektronik, Lamprecht/Pfalz, Germany). Exocytosis was monitored as increases in cell membrane capacitance (Neher & Marty Proc. Natl. Acad, Sci. USA, Vol. 79, pp. 6712-6716,1982) using the standard whole-cell configuration of the patch-clamp technique and an EPC-9 patch-clamp amplifier and the Pulse software (v. 8.01; HEKA Elektronik). […]

[1] = tested on: isolated perfused rat pancreas; assay: Insulin release from isolated perfused rat pancreas
Description: The effect of the compounds of the invention on the insulin release from isolated perfused rat pancreas can be investigated as exemplified below with the title compound of Example 2 (compound (Ex 2). In the example described, the investigation is carried out at 2.8 mM and 8.3 mM glucose.
Male Sprague Dawley rats (body weight around 300 g) were anaesthetised with a mixture of Hypnorm® (Janssen Pharma) and Dormicum® (Roche) and the pancreas was cannulated and isolated a described by Sturis et al., Am. J. Physiol. 269, E786-E792, 1995. The organ was placed at 37° C. in a humidified perfusion chamber and perfused with a […] gassed bicarbonated Krebs Ringer, 4% Dextran buffer from a pump delivering 71% of the total volume and from a pump delivering 29% volume of the same buffer with added BSA (0.2% final concentration) and glucose (2.8 mM or 8.3 mM final concentration). The 29% pump also delivered compund (Ex 2) at 10^−5 M in the interval t=20-40 min and at 10^−4 M in the interval t=60-80 min. The pancreata were acclimatised for 20 min before start of sampling at 1 fraction of ca 1900 μl/min for 100 min. Aliquots of 200 μl were frozen away at −20° C. for subsequent insulin ELISA using guinea pig anti-insulin antibodies. The results are shown in FIG. 7 and are expressed as fmol insulin released per pancreas per min. Each plot represents one pancreas, except 8.3 mM glucose alone mean of n=2. […] In the pancreas infused with 8.3 mM glucose and compound (Ex 2) there was an initial noise in the interval t=0-20 min which was due to a mechanical problem with the tubing. […] When 10^−4 M compound (Ex 2) was added at t=60 min there was a classic first-phase insulin release peaking at 3000 fmol/min, followed by second-phase release. […] We have evidence that non-reversal may be due to the low BSA concentration (0.2%) in the perfusate.
In the pancreas perfused with compound (Ex 2) at 2.8 mM glucose, the insulin secretion was only about 10% of that seen at 8.3 mM glucose (max. 250 fmol/min) with 10^−4 M compound (Ex 2) while the control pancreas secretion was flat at ca 20 fmol/min.

COc1cccc(C(CC2=NCCN2)c2ccccn2)c1 (single isomer, unassigned; (-)) [compound (Ex 2), (−)-2-(2-(4,5-Dihydro-1H-imidazol-2-yl)-1-(3-methoxyphenyl)ethyl)pyridine]
effect on Ca2+-evoked exocytosis (in words) (mouse pancreatic β-cells): strong stimulation of exocytosis
rate of exocytosis (ΔCm/Δt) measured over the first 60 s after establishment of the whole-cell configuration (mouse pancreatic β-cells; control 5.0±0.3 fF/s, P<0.025): 9.4±1.7 fF/s
insulin secretion, max. ([1]; 2.8 mM glucose, 10^-4 M compound, control pancreas ca 20 fmol/min): 250 fmol/min
first-phase insulin release, peak ([1]; 8.3 mM glucose, 10^-4 M compound added at t=60 min, 8.3 mM glucose alone 300 up to ca 700 fmol/min): 3000 fmol/min
effect on insulin secretion (in words) ([1]; 8.3 mM glucose, 10^-5 M compound, t=20-40 min): small increase in insulin secretion
insulin secretion at 2.8 mM glucose as share of that seen at 8.3 mM glucose ([1]; 10^-4 M compound): about 10%
